For data set [1], the system named is DU-145 prostate cancer cells. The data set is described as follows: SRB-assay, reduction in total cellular biomass. In kind it is cell-based, human. Here is the method:
(§1) The reduction in cellular biomass was measured by SRB-assay. For this assay cells were seeded in 96 well culture dishes at densities between 3000 and 8000 cells per well. […] Cultures were fixed with cold TCA producing a final TCA concentration of 10%. After 1 hour of incubation at 4° C. the cells were washed five times with water and air dried. Fixed cells were stained for 30 minutes with 0,4% (wt/vol) Sulforhodamine B (SRB) dissolved in 1% acetic acid and washed four times with 1% acetic acid to remove unbound dye. After air drying bound dye was solubilized with 10 mM unbuffered Tris base (pH 10,5) for 5 minutes. Optical densities were read on a Titertek Multiskan Plus spectrophotometric plate reader at 550 nm. Six test wells for each dose-response were set in parallel with 12 growth control wells per cell line. A measure of the cell population density at time 0 (To; the time at which the drug was added) was also made from 12 extra reference wells of cells fixed with TCA just prior to drug addition to the test plates. Background OD of complete medium with 5% FBS fixed and stained as described above was also determined in 12 separate wells. From the unprocessed OD data from each microtiter plate the background OD measurements (i.e. OD of complete medium plus stain and OD of cells at T0) were subtracted thus giving the reduction of cellular biomass of the cells.
(§2) The effect on the reduction in total cellular biomass was measured by SRB-assay (see example 1 for assay and read-out procedure details).
(§3) Results using MCF-7 estrogen-dependent breast cancer cells are presented in FIG. 18 and using DU-145 prostate cancer cells in FIG. 19. […] The effect on cell growth was measured by SRB-assay as described in example 1.

Data set [2] deals with MCF-7 estrogen-dependent breast cancer cells. The data set is described as follows: SRB-assay, reduction in total cellular biomass. Type of data set: cell-based, human. As for the experimental part:
as §1, §2, §3

Data set [3] is described as follows: dose finding experiment, VPA serum levels. Type of data set: in vivo, rat. The settings on record: chosen dosage protocol. Here is the method:
MT450 cells were grown in DMEM/W10% FCS medium and tested for absence of mycoplasms just prior to injection. Cells were washed twice in PBS and suspended to a density of 5×10^6 cells per ml of PBS. 5×10^5 cells in 0.1 ml of PBS were injected into each rat. […] Rats were left to grow primary tumors for 21 days. […] The solution was sterile filtered. The compound was applied by i.p. injection. […] Two doses per day were applied. Control animals received equal amounts of a sterile isotonic sodium chloride solution.
The experiment was terminated when tumor size in one of the rats of the control group had reached the legal limit of 50 mm. Necropsy at that time was performed on all rats of the experiment to assess lung metastasis. […] Metastasis was also found in 7 out of 8 VPA-treated rats. However, size and number of metastases were much smaller compared to NaCl-treated rats. A dose finding experiment had shown that the chosen dosage protocol lead to high initial serum levels (e.g. 3.6 mM at 1 hour after i.p. injection) which rapidly dropped (e.g. 0.25 mM at 4 hours after i.p. injection) below those levels which are maintained during therapy of epilepsy in human.

Data set [4] has as its system PML-RAR expressing leukemic cells. The data set is described as follows: survival of mice suffering from acute promyelocytic leukemia. Type of data set: in vivo. Here is the method:
Mice that developed leukemia after inoculation with PML-RAR expressing cells were sacrificed. Single-cell suspensions of spleenocytes were prepared, and secondary recipient mice were reinoculated with 10^7 cells.
The numbers in parentheses indicate the number of mice in the representative experiment shown.

Data set [5] has as its system HCT-116 colon cancer cells. The data set is described as follows: cell counts and propidium iodide cell cycle/apoptosis analysis. In kind it is cell-based, human. Here is the method:
For FIG. 14 cells were seeded in 6 well culture dishes at 100000 cells/well. The day after, they were treated with the indicated drugs (5-FU: 2 μM 5-Fluoruracile; AD: 20 ng/ml adriamycin; IT: 3 μM irinothecan), and then cultured for further 48 hours. Cells were counted at 24 h and 48 h after treatment. All of the assays have been performed in triplicate.
For FIG. 15 cells were seeded in 6 well culture dishes at 100000 cells/well. […] (A), results of triplicate counts of viable cells. (B), cells were stained with propidium iodide after permeabilization and fixation. Results of a cell cycle analysis are presented as percentage (%) of cells in G1, S, G2+M, and sub-G1 (apoptotic cells): all of the assays have been performed in triplicate.
(A), results of triplicate counts of viable cells. (B), cells were stained with propidium iodide after permeabilization and fixation. Results of a cell cycle analysis are presented as percentage (%) of apoptotic cells: all of the assays have been performed in triplicate.
For FIG. 17 cells were seeded in 10 cm culture dishes (1 million cells/dish). […] The day after, they were treated with the following drugs: 5-FU (panel A), AD (B), or IT (C), at the concentrations as indicated for FIG. 14. Cells were analyzed at the day of treatment, 24 h, and 48 h following treatment. Upper panels, results of triplicate counts of viable cells. Lower panels, cells were stained with propidium iodide after permeabilization and fixation. Results of a cell cycle analysis are presented as percentage (%) of apoptotic cells: all of the assays have been performed in triplicate.

The test system of a further data set is Kasumi-1 cells. The data set is described as follows: viability, cell cycle and myeloid differentiation (morphology, NBT dye reduction). Type of data set: cell-based, human. As for the experimental part:
Cell numbers were evaluated and quantified by direct cell counting (trypan blue dye exclusion method) using a hematocytometer chamber and light microscopy. Morphological examination was performed by Wright-Giemsa stained cytospins; nitroblue tetrazolium (NBT) dye reduction assay, respectively. Each point represents the mean of a set of data determined in triplicate (Example 15).
Cases were classified according to the French-American-British (FAB) classification (Bennett et al., Ann Intern Med 103, 1985). Cytogenetic analysis and RT-PCR tests were performed to rule out the presence of the APL associated fusion genes according to standard methods as described (Mandelli et al., Blood 90, 1997; Mancini et al., Br J Haematol. 91, 1995; Grimwade et al., Blood 90, 1999).

For data set [6] the following is noted: used as an antiepileptic drug during pregnancy; cited from earlier work.
The mark [7] stands for this setting: VPA in combination with 100 nM 1α,25 Dihydroxyvitamin D3, 48 hours, vs either alone.

Regarding `CCCC(CCC)C(=O)O` [VPA, 2-propylpentanoic acid], the “reduction of cellular biomass” value in data set [1] (1 mM VPA in combination with lower concentrations of cis Platinum, 48 hours) is “synergistic reduction of cellular biomass”. Besides, the “reduction in cellular biomass” value is “at least additive reduction in cellular biomass” in data set [1] (setting [7]); “clear additive reduction in cellular biomass” in data set [2] (0.75 mM VPA in combination with Paclitaxel, 48 hours, compared to either alone); “at least additive reduction in cellular biomass” in data set [2] (setting [7]). Further, the “effect of the combination treatment” value in data set [2] (VPA in combination with 100 nM 1α,25 Dihydroxyvitamin D3, 48 hours) is recorded as “slight synergistic effect”. In addition, the serum level is 3600 µM in data set [3] (1 hour after i.p. injection) and 250 µM in data set [3] (4 hours after i.p. injection). In data set [4] (combination of retinoic acid and VPA, entire duration of the treatment), the “leukemic blasts in peripheral blood, bone marrow, spleen” value was “no leukemic blasts were observed”. The “survival of leukemic mice” value is “greatest extension of survival” in data set [4] (combination of retinoic acid pellet and VPA 400 mg/kg I.P. every 12 hours); “significantly extended survival” in data set [4] (single agent: retinoic acid pellets subcutaneously, VPA 400 mg/kg I.P. every 12 hours). Further, the cell growth entry in data set [5] (5-FU 2 μM in combination with VPA 1 mM, 72 hours) is “strong synergistic reduction in cell growth”. Further, the apoptosis entry in data set [5] (5-FU 2 μM in combination with VPA 1 mM, 72 hours, vs 5-FU alone) is “much higher levels of apoptosis”; in data set [5] (VPA 1 mM pre-treatment three days, then VPA+AD (20 ng/ml) up to 48 hours), “dramatic synergistic enhancement of apoptosis”; in data set [5] (VPA 1 mM pre-treatment three days, then VPA+FU (2 μM) up to 48 hours) it was “dramatic synergistic enhancement of apoptosis”; in data set [5] (VPA 1 mM pre-treatment three days, then VPA+IT (3 μM) up to 48 hours) it was “dramatic synergistic enhancement of apoptosis”; in data set [5] (VPA alone, up to one week), “did not induce apoptosis”. Also, the cell number entry in data set [5] (VPA alone, up to one week) was “only minimally affected cell number”. The myeloid differentiation result in the data set on Kasumi-1 cells (VPA as a single agent) is “partial myeloid differentiation”; in the data set on Kasumi-1 cells (VPA in combination with RA), “complete and thus synergistic myeloid differentiation”. Besides, the “positive cells in the NBT dye reduction assay” value with Kasumi-1 cells (VPA in combination with RA) is “up to 65%”. In the data set with Kasumi-1 cells (VPA in combination with RA), the viability result is “additive effect”. Also, in the data set on Kasumi-1 cells (combination of VPA plus RA compared to VPA or RA alone), the cell cycle analysis result was “enhanced cell cycle shift into G1 arrest”. Moreover, the “birth defects (neural tube closure defects and other malformations) in born children” value in data set [6] is reported as “a few percent”.

The values are drawn from patent US20050038113A1, “Valproic acid and derivatives for the combinatorial therapeutic treatment of human cancers and for the treatment of tumor metastasis and minimal residual disease” (G2M Cancer Drugs AG, priority 2001, published 2005).
